Data published in ChEMBL document CHEMBL6087427, “Discovery of novel cyclopentane carboxylic acids as potent and selective inhibitors of NaV1.7” (Bioorg Med Chem Lett, 2025).
≈ marks a conversion by molar mass, not a printed value. Each block holds one compound with its values, some of them ahead of it.

Tests used:
[1] = molecular target: T1, Sodium channel protein type 9 subunit alpha (Homo sapiens, UniProt Q15858); assay: Displacement of [3H]GX-545 from Nav1.7 VSD4 (unknown origin)
Target sequence in this assay (Q15858 whole entry): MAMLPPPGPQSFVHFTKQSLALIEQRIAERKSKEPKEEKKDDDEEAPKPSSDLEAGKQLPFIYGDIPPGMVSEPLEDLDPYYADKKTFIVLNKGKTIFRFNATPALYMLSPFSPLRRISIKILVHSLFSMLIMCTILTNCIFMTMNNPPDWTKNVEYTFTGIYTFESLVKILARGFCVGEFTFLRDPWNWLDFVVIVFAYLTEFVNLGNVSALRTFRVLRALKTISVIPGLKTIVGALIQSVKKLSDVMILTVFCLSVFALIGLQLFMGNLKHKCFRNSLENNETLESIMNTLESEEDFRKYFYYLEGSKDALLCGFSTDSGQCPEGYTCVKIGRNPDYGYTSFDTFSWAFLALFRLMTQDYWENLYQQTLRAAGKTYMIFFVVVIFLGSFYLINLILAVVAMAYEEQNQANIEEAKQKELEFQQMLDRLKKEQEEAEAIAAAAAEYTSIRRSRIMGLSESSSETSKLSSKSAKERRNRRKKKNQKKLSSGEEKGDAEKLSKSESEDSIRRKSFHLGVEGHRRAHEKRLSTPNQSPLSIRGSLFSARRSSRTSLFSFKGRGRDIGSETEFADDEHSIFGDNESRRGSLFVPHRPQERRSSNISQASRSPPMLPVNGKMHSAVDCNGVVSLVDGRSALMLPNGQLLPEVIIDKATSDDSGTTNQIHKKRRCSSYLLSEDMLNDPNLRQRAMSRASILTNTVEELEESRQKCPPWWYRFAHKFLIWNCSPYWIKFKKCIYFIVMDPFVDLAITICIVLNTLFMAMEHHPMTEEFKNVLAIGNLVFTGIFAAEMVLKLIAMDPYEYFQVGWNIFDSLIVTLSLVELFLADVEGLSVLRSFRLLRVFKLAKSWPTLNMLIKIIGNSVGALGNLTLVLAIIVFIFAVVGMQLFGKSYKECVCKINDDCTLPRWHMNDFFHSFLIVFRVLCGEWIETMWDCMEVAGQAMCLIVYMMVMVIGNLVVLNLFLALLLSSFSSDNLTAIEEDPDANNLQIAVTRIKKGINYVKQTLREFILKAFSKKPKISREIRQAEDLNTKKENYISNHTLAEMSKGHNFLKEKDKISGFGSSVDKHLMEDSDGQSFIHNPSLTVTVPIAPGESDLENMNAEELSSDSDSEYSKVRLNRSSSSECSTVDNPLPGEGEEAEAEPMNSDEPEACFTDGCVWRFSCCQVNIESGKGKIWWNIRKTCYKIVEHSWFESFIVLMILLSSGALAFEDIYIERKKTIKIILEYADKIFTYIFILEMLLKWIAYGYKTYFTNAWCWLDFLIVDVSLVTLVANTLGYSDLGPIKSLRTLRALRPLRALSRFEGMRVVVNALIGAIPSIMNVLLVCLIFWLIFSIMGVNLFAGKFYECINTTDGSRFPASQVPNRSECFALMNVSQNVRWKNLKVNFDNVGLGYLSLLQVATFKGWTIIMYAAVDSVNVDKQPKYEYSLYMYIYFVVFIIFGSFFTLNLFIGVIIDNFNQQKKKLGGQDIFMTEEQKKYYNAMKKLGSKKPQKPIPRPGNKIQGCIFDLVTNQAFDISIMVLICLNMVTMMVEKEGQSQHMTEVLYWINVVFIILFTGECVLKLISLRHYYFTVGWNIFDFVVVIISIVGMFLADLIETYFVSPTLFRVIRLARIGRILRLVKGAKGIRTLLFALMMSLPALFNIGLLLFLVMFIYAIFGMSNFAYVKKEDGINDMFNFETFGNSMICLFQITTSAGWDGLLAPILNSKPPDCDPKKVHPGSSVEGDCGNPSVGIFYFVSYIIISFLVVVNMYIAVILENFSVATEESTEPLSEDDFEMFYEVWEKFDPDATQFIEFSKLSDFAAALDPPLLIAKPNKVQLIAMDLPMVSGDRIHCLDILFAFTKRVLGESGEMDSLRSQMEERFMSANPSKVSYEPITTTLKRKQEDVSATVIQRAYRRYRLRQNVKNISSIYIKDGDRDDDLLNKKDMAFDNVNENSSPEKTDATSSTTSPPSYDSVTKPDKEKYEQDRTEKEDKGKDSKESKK

[2] = molecular target: T1, Sodium channel protein type 9 subunit alpha; assay: Inhibition of human Nav1.7 by patch clamp electrophysiology
Target sequence in this assay (Q15858 whole entry): as above

[3] = molecular target: Sodium channel protein type 5 subunit alpha (Homo sapiens, UniProt Q14524); assay: Inhibition of human Nav1.5 by patch clamp electrophysiology
[4] = molecular target: T1, Sodium channel protein type 9 subunit alpha; assay: Inhibition of human Nav1.7 by sodium flux assay
Target sequence in this assay (Q15858 whole entry): as above

[5] = molecular target: T1, Sodium channel protein type 9 subunit alpha; assay: Inhibition of human Nav1.7 assessed as fold shift in IC50 in presence of BSA by sodium flux assay
Target sequence in this assay (Q15858 whole entry, looked up): as the sequence (Q15858 whole entry) above

[6] = Metabolic stability in human liver microsomes assessed as hepatic clearance; type: ADME, Microsome
[7] = Metabolic stability in mouse liver microsomes assessed as hepatic clearance; type: ADME, Microsome
[8] = AUC in mouse at 3 mg/kg, po; type: ADME, organism-based; conditions: in vivo
[9] = molecular target: Sodium channel protein type 1 subunit alpha (Homo sapiens, UniProt P35498); assay: Inhibition of human Nav1.1 by patch clamp electrophysiology
[10] = molecular target: Sodium channel protein type 2 subunit alpha (Homo sapiens, UniProt Q99250); assay: Inhibition of human Nav1.2 by patch clamp electrophysiology
[11] = molecular target: Sodium channel protein type 8 subunit alpha (Homo sapiens, UniProt Q9UQD0); assay: Inhibition of human Nav1.6 by patch clamp electrophysiology
[12] = Metabolic stability in human hepatocytes assessed as hepatic clearance; type: ADME, cell-based, Hepatocyte
[13] = Metabolic stability in mouse hepatocytes assessed as hepatic clearance; type: ADME, cell-based, Hepatocyte
[14] = Apparent permeability across apical to basolateral side in MDCK cells; type: ADME, cell-based, Canis lupus familiaris; conditions: dog
MDR1 (P-gp) = assay: Efflux ratio in MDCK-MDR1 cells; type: ADME, cell-based, Canis lupus familiaris; conditions: dog
BCRP = assay: Efflux ratio in MDCK-BCRP cells; type: ADME, cell-based, Canis lupus familiaris; conditions: dog
[15] = Plasma protein binding in human; type: ADME, cell-free; conditions: read-out: PPB
[16] = Plasma protein binding in mouse; type: ADME, cell-free; conditions: read-out: PPB
Cytochrome P450 1A2 = molecular target: T2, Cytochrome P450 1A2 (Homo sapiens, UniProt P05177); assay: Inhibition of CYP1A2 (unknown origin); type: ADME
T2 sequence (P05177 whole entry): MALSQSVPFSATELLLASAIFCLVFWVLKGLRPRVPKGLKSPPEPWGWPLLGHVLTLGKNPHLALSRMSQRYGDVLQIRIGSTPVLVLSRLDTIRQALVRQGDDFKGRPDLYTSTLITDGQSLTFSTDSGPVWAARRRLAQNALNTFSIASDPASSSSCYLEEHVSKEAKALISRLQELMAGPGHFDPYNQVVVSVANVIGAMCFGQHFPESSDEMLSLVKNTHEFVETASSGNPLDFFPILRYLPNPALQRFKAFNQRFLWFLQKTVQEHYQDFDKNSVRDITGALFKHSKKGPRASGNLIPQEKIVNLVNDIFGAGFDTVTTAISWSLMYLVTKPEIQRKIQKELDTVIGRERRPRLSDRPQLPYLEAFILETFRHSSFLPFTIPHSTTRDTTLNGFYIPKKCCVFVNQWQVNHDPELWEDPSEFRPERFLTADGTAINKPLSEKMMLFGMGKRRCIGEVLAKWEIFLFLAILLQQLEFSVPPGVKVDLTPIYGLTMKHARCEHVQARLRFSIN

Cytochrome P450 2C19 = Cytochrome P450 2C19 (Homo sapiens, UniProt P33261); assay: Inhibition of CYP2C19 (unknown origin); type: ADME
Cytochrome P450 2C9 = Cytochrome P450 2C9 (Homo sapiens, UniProt P11712); assay: Inhibition of CYP2C9 (unknown origin); type: ADME
Cytochrome P450 2D6 = Cytochrome P450 2D6 (Homo sapiens, UniProt P10635); assay: Inhibition of CYP2D6 (unknown origin); type: ADME
Cytochrome P450 3A4 = Cytochrome P450 3A4 (Homo sapiens, UniProt P08684); assay: Inhibition of CYP3A4 (unknown origin); type: ADME
[17] = Kinetic solubility of compound; type: physicochemical; conditions: read-out: Kinetic_solubility
[18] = Volume of distribution at steady state in mouse at 1 mg/kg, iv; type: ADME, organism-based; conditions: in vivo, read-out: Vdss
[19] = Half life in mouse at 1 mg/kg, iv; type: ADME, organism-based; conditions: in vivo
[20] = Cmax in mouse at 3 mg/kg, po; type: ADME, organism-based; conditions: in vivo
[21] = Half life in mouse at 3 mg/kg, po; type: ADME, organism-based; conditions: in vivo
[22] = Oral bioavailability in mouse at 3 mg/kg; type: ADME, organism-based; conditions: in vivo
Mus musculus [23] = assay: Analgesic activity in aconitine-induced nociception in IEM transgenic FVB mouse model assessed as reduction in pain response at 3 mg/kg, po pretreated for 2 hrs followed by aconitine administration measured for 30 mins post-aconitine dose relative to control; type: functional; design: scale not given: the % may be the effect or the level left; conditions: time 2.5 hrs
Mus musculus [24] = assay: Analgesic activity in aconitine-induced nociception in IEM transgenic FVB mouse model assessed as reduction in pain response at 10 mg/kg, po pretreated for 2 hrs followed by aconitine administration measured for 30 mins post-aconitine dose relative to control; type: functional; design: scale not given: the % may be the effect or the level left; conditions: time 2.5 hrs
Mus musculus [25] = assay: Analgesic activity in aconitine-induced nociception in IEM transgenic FVB mouse model assessed as reduction in pain response at 30 mg/kg, po pretreated for 2 hrs followed by aconitine administration measured for 30 mins post-aconitine dose relative to control; type: functional; design: scale not given: the % may be the effect or the level left; conditions: time 2.5 hrs
Mus musculus [26] = assay: Analgesic activity in aconitine-induced nociception in IEM transgenic FVB mouse model assessed as reduction in pain response at 100 mg/kg, po pretreated for 2 hrs followed by aconitine administration measured for 30 mins post-aconitine dose relative to control; type: functional; design: scale not given: the % may be the effect or the level left; conditions: time 2.5 hrs
[27] = Drug concentration in plasma of aconitine-induced nociception in IEM transgenic FVB mouse model at 3 mg/kg, po pretreated for 2 hrs followed by aconitine administration measured for 30 mins post-aconitine dose; type: ADME, organism-based
[28] = Drug concentration in plasma of aconitine-induced nociception in IEM transgenic FVB mouse model at 10 mg/kg, po pretreated for 2 hrs followed by aconitine administration measured for 30 mins post-aconitine dose; type: ADME, organism-based
[29] = Drug concentration in plasma of aconitine-induced nociception in IEM transgenic FVB mouse model at 30 mg/kg, po pretreated for 2 hrs followed by aconitine administration measured for 30 mins post-aconitine dose; type: ADME, organism-based
[30] = Drug concentration in plasma of aconitine-induced nociception in IEM transgenic FVB mouse model at 100 mg/kg, po pretreated for 2 hrs followed by aconitine administration measured for 30 mins post-aconitine dose; type: ADME, organism-based
Mus musculus [31] = assay: Analgesic activity in aconitine-induced nociception in IEM transgenic FVB mouse model assessed as inhibition of nociceptive behaviour at 3 to 100 mg/kg, po pretreated for 2 hrs followed by aconitine administration measured for 30 mins post-aconitine dose; type: functional, organism-based
[32] = Drug concentration in brain of aconitine-induced nociception in IEM transgenic FVB mouse model at EC50 pretreated orally for 2 hrs followed by aconitine administration measured for 30 mins post-aconitine dose; type: ADME, tissue-based; conditions: route po, read-out: Ct
[33] = Ratio of drug concentration in brain to plasma of aconitine-induced nociception in IEM transgenic FVB mouse model at EC50 pretreated orally for 2 hrs followed by aconitine administration measured for 30 mins post-aconitine dose; type: ADME; conditions: route po, read-out: BPR

Sodium channel protein type 5 subunit alpha, sequence (Q14524 whole entry): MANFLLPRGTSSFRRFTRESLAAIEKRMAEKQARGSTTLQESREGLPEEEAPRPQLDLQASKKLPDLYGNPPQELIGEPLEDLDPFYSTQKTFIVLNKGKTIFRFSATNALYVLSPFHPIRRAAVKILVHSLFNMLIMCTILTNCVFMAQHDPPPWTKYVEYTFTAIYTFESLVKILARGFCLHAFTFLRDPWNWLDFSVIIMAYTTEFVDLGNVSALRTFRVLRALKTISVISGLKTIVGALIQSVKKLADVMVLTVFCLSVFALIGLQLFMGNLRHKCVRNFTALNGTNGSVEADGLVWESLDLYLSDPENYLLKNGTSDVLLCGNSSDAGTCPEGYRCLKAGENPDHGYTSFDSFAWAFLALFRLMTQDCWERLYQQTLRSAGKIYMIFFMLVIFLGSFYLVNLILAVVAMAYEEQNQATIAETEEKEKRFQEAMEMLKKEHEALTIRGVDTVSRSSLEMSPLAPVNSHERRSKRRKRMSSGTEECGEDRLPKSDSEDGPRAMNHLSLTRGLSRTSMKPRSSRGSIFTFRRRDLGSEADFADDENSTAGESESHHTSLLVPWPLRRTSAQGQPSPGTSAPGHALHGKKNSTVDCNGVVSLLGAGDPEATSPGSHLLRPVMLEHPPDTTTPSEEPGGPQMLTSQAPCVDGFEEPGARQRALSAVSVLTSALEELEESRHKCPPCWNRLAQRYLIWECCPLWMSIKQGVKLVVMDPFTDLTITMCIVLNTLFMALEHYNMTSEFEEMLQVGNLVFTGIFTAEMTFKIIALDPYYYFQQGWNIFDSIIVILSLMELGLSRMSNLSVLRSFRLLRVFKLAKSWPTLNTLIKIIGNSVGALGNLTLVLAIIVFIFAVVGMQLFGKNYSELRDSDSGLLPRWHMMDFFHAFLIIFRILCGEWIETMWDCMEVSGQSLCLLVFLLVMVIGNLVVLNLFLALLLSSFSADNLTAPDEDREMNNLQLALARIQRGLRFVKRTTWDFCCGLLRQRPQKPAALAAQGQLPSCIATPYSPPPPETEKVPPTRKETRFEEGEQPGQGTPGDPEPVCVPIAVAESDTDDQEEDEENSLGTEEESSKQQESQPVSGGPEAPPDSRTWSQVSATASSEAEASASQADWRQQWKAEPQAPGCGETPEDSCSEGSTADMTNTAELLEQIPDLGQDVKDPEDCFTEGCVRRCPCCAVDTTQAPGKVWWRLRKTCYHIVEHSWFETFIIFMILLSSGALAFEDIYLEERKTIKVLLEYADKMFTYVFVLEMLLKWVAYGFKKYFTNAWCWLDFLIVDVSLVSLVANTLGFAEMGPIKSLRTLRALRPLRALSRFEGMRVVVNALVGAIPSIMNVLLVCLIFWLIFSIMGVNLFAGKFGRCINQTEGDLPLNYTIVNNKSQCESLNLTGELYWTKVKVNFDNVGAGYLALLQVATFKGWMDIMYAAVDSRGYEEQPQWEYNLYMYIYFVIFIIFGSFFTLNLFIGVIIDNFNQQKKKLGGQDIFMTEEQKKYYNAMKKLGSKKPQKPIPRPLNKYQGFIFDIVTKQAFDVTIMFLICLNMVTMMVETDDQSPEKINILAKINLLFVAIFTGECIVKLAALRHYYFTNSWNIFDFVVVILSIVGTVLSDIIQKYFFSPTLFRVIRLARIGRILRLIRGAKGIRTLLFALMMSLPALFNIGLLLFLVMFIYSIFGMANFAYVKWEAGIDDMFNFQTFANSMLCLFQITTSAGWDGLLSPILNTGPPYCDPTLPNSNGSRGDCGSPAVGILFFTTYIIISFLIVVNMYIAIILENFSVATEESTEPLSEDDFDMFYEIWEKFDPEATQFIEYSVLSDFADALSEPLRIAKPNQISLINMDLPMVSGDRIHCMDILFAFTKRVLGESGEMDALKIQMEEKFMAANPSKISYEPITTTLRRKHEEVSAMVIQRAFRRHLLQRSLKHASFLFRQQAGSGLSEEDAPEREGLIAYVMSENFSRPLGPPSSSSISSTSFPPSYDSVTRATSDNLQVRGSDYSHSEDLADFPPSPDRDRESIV
Cytochrome P450 2D6, sequence (P10635 whole entry): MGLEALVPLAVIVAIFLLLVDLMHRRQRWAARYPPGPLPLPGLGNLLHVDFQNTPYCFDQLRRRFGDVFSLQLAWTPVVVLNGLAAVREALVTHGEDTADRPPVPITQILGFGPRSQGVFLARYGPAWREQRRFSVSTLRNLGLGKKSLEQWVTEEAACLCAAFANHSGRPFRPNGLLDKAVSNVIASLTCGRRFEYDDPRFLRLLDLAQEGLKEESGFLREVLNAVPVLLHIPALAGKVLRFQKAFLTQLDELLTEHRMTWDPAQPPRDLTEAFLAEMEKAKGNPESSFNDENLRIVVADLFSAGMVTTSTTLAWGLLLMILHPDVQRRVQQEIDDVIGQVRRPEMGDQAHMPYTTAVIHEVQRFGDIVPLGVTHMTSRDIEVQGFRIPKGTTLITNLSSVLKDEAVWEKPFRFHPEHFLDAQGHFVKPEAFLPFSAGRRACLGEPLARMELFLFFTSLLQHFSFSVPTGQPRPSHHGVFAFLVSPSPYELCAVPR
Cytochrome P450 2C9, sequence (P11712 whole entry): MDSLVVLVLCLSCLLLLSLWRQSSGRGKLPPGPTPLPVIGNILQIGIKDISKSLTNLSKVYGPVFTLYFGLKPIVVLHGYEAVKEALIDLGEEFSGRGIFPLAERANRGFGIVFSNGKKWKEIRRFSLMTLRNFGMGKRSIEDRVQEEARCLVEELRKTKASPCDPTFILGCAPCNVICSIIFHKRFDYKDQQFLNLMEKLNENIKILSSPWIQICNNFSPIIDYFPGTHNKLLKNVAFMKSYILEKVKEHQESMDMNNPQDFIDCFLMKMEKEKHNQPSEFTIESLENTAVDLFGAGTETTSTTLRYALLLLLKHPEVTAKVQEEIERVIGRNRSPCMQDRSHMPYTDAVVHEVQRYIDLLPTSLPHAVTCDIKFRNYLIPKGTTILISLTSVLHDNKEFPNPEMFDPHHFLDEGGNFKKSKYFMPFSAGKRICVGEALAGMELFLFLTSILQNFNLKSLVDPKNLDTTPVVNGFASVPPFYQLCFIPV

Structure (SMILES): O=C(O)[C@@H]1[C@@H](F)CCN1C(=O)c1cc(C2CC2)c(OCC23CC4CC(CC(C4)C2)C3)cc1F
Ki [1]: 60 nM

Structure (SMILES): O=C(O)[C@@H]1[C@H](O)CCN1C(=O)c1cc(C2CC2)c(OCC23CC4CC(CC(C4)C2)C3)cc1F
Ki [1]: 160 nM

Structure (SMILES): O=C(O)[C@@H]1[C@H](F)CCN1C(=O)c1cc(C2CC2)c(OCC23CC4CC(CC(C4)C2)C3)cc1F
Ki [1]: 170 nM

Structure (SMILES): CC1(C)CCN(C(=O)c2cc(C3CC3)c(OCC34CC5CC(CC(C5)C3)C4)cc2F)[C@@H]1C(=O)O
Ki [1]: 58 nM

Structure (SMILES): O=C(O)[C@@H]1C2CC(C2)N1C(=O)c1cc(C2CC2)c(OCC23CC4CC(CC(C4)C2)C3)cc1F
Ki [1]: 190 nM

Structure (SMILES): N#C[C@@H]1C[C@@H](C(=O)O)N(C(=O)c2cc(C3CC3)c(OCC34CC5CC(CC(C5)C3)C4)cc2F)C1
Ki [1]: 120 nM

Stronger by Ki [1], values ahead:

Ki [1]: 8.6 nM | IC50 [2]: 12 nM | IC50 [4]: 250 nM | fold change (FC) [5]: 1.5 | CLhep predicted [6]: 17 mL/min/kg | CLhep predicted [7]: 61 mL/min/kg | AUC ([8]; read-out: AUC): 0.53 µM·h
Structure (SMILES): O=C(c1cc(C2CC2)c(OCC23CC4CC(CC(C4)C2)C3)cc1F)C1CCC[C@H]1C(=O)O (some centres undefined)
IC50 [3]: 2600 nM

Ki [1]: 7 nM
Structure (SMILES): O=C(O)[C@@H]1C[C@@H](F)CN1C(=O)c1cc(C2CC2)c(OCC23CC4CC(CC(C4)C2)C3)cc1F

Ki [1]: 36 nM
Structure (SMILES): CO[C@@H]1CN(C(=O)c2cc(C3CC3)c(OCC34CC5CC(CC(C5)C3)C4)cc2F)[C@H](C(=O)O)[C@H]1C

Ki [1]: 10 nM
Structure (SMILES): C[C@H]1CCN(C(=O)c2cc(C3CC3)c(OCC34CC5CC(CC(C5)C3)C4)cc2F)[C@@H]1C(=O)O

Ki [1]: 4.9 nM | IC50 [2]: 13 nM | IC50 [4]: 99 nM | CLhep predicted [6]: 11 mL/min/kg | CLhep predicted [7]: 51 mL/min/kg | AUC ([8]; po, 3 mg/kg): 9.6 µM·h | IC50 [9]: 25 nM | IC50 [10]: 15 nM | IC50 [11]: 300 nM | CLhep predicted [12]: 6.2 mL/min/kg | CLhep predicted [13]: 21 mL/min/kg | Papp A→B [14]: 19 ×10⁻⁶ cm/s | efflux ratio (MDR1 (P-gp)): 2.8 | efflux ratio (BCRP): 0.92 | fraction unbound [15]: 0.0001 | fraction unbound [16]: 0.0001 | IC50 (Cytochrome P450 1A2): > 10000 nM | IC50 (Cytochrome P450 2C19): > 10000 nM | IC50 (Cytochrome P450 2C9): > 10000 nM | IC50 (Cytochrome P450 2D6): > 10000 nM | IC50 (Cytochrome P450 3A4): > 10000 nM | solubility kinetic [17]: 58 µM (≈ 33.7 µg/mL) | Vd [18]: 0.94 L/kg | half-life [19]: 1.2 h | Cmax [20]: 1.5 µM | half-life [21]: 3.6 h | F [22]: 45% | concentration at 2.5 h [27]: 1.77 µM | concentration at 2.5 h [28]: 7.29 µM | concentration at 2.5 h [29]: 20.8 µM | concentration at 2.5 h [30]: 50.9 µM | EC50 (Mus musculus [31]): 2720 nM | concentration at 2.5 h [32]: 0.33 µM | Kp at 2.5 h [33]: ~0.12
Structure (SMILES): C[C@@H]1[C@@H](C(=O)O)[C@H](C(=O)c2cc(C3CC3)c(OCC3CCN(Cc4c(Cl)cccc4Cl)CC3)cc2F)C[C@@H]1F
IC50 [3]: 5900 nM | Activity (Mus musculus [23]): 35% | Activity (Mus musculus [24]): 81% | Activity (Mus musculus [25]): 96% | Activity (Mus musculus [26]): 100%

Ki [1]: 35 nM
Structure (SMILES): O=C(O)[C@@H]1CC(F)(F)CN1C(=O)c1cc(C2CC2)c(OCC23CC4CC(CC(C4)C2)C3)cc1F

Ki [1]: 6.4 nM | IC50 [2]: 10 nM | fold change (FC) [5]: 1 | CLhep predicted [6]: 13 mL/min/kg | CLhep predicted [7]: 64 mL/min/kg | AUC ([8]; read-out: AUC): 0.16 µM·h
Structure (SMILES): C[C@@H]1[C@@H](C(=O)O)N(C(=O)c2cc(C3CC3)c(OCC34CC5CC(CC(C5)C3)C4)cc2F)C[C@@H]1F
IC50 [3]: 5800 nM
